{
  "source": "paper PMC6934184",
  "about": "“Selective DNA-PKcs inhibition extends the therapeutic index of localized radiotherapy and chemotherapy” (The Journal of Clinical Investigation, 2019)",
  "biological_target": "T1, MAPK10 (JNK3) (Homo sapiens, UniProt P53779)",
  "T1 construct": "purchased Thermo Fisher Scientific (Life Technologies) SelectScreen",
  "T1 sequence (P53779 whole entry)": "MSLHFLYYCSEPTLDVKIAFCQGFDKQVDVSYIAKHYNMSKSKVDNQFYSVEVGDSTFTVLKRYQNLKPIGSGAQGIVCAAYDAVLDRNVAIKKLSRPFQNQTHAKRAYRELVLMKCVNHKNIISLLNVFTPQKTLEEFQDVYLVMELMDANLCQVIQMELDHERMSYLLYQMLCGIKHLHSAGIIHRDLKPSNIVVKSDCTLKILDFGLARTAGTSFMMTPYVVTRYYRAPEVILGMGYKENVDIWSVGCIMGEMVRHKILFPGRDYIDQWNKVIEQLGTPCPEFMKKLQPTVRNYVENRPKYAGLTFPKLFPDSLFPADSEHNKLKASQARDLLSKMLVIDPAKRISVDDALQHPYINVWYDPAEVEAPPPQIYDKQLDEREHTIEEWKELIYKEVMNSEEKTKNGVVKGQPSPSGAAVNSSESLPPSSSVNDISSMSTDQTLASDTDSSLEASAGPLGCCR",
  "assay": "SelectScreen Z'LYTE",
  "type": "biochemical",
  "settings": "ATP 100 µM",
  "summary_of_the_method": "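NU5455 was profiled across the SelectScreen Broad panel of kinase activity and binding assays. Z'LYTE reactions such as CSF1R ran at apparent Km ATP, while the Adapta CAMK1 assay used ATP listed as 10. Values are given as percent.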",
  "data": [
    {"smiles": "CN(C(=O)CN1CCOCC1)c1ccc2sc3c(-c4cccc5c(=O)cc(N6CC7CCC(C6)O7)oc45)cccc3c2c1", "note": "[NU5455]", "values": [
      {"measurement": "inhibition at 1 µM", "result": 9, "unit": "%"}
    ]}
  ]
}
